The text below walks through data of patent US11845747B2, “Ester and carbonate pyrimidine compounds as JAK kinase inhibitors” (priority 2019, dated 2023).

Data set [1] can be described thus: physchem. It counts as physicochemical. Particulars: pH 7.4, aqueous buffer, thermodynamic from solid. The procedure: Assay 4: Aqueous Solubility Assay The purpose of this assay was to quantify the solubility of test compounds in pH 4 and pH 7.4 PBS buffers. The assay required 40 μL of 10 mM DMSO test compound solution per desired buffer in addition to 20 μL required to make a test standard. For example, to test a compound in both buffers, 100 μL (2*40 μL+20 μL) of 10 mM DMSO compound stock solution was required. The standard was created by diluting 20 μL of 10 mM DMSO compound stock solution into 180 μL of methanol and was shaken for five minutes to ensure solution uniformity. […] This 1,000 μM solution was run on an Agilent 1260 LC-MS system by injecting 2 μL in order to obtain the peak area. For the test solutions, 40 μL of 10 mM DMSO compound stock solution, per PBS buffer condition, were dried down into a powder overnight. Once in powder form, 400 μL of the desired PBS buffer was added to the powder and allowed to shake vigorously for four hours. The maximum theoretical concentration for this sample solution was 1,000 μM. After four hours of shaking, the samples were centrifuged for 10 minutes at 3,000 RPM before injecting 2 μL on the same Agilent 1260 LC-MS system to obtain the peak area. […]

Data set [2] relates to IL-2 stimulated STAT5 phosphorylation in Tall-1 human T cell line (JAK1/3). Description: Inhibition of IL-2 stimulated pSTAT5 in Tall-1 T cells. Format: cell-based. Particulars: IL-2 300 ng/mL, AlphaLisa, read-out: Tall-1 IL2 pSTAT5 (pIC50) (converted). On the procedure:
Assay 2: Inhibition of IL-2 Stimulated pSTAT5 in Tall-1 T Cells
The potency of test compounds for inhibition of interleukin-2 (IL-2) stimulated STATS phosphorylation was measured in the Tall-1 human T cell line (DSMZ) using AlphaLisa. Because IL-2 signals through JAK1/3, this assay provides a measure of JAK1/3 cellular potency.
Phosphorylated STAT5 was measured via the AlphaLISA SureFire Ultra pSTAT5 (Tyr694/699) kit (PerkinElmer). Human T cells from the Tall-1 cell line were cultured in a 37° C., 5% CO2 humidified incubator in RPMI (Life Technologies) supplemented with 15% Heat Inactivated Fetal Bovine Serum (FBS, Life Technologies), 2 mM Glutamax (Life Technologies), 25 mM HEPES (Life Technologies) and 1× Pen/Strep (Life Technologies). Compounds were serially diluted in DMSO and dispensed acoustically to empty wells. Assay media (phenol red-free DMEM (Life Technologies) supplemented with 10% FBS (ATCC)) was dispensed (4 μL/well) and plates shaken at 900 rpm for 10 mins. Cells were seeded at 45,000 cells/well in assay media (4 μL/well), and incubated at 37° C., 5% CO2 for 1 hour, followed by the addition of IL-2 (R&D Systems; final concentration 300 ng/mL) in pre-warmed assay media (4 μL) for 30 minutes. After cytokine stimulation, cells were lysed with 6 ul of 3× AlphaLisa Lysis Buffer (PerkinElmer) containing 1× PhosStop and Complete tablets (Roche). The lysate was shaken at 900 rpm for 10 minutes at room temperature (RT). Phosphorylated STAT5 was measured via the pSTAT5 AlphaLisa kit (PerkinElmer). Freshly prepared acceptor bead mixture was dispensed onto lysate (5 μL) under green filtered <100 lux light. Plates were shaken at 900 rpm for 2 mins, briefly spun down, and incubated for 2 hrs at RT in the dark. Donor beads were dispensed (5 μL) under green filtered <100 lux light. Plates were shaken at 900 rpm for 2 minutes, briefly spun down, and incubated overnight at RT in the dark. Luminescence was measured with excitation at 689 nm and emission at 570 nm using an EnVision plate r reader (PerkinElmer) under green filtered <100 lux light.
To determine the inhibitory potency of test compounds in response to IL-2, the average emission intensity of beads bound to pSTAT5 was measured in a human T cell line. IC50 values were determined from analysis of the inhibition curves of signal intensity versus compound concentration. Data are expressed as pIC50 (negative decadic logarithm IC50) values (mean±standard deviation).
(Alpha assays give light when donor and acceptor beads are brought close together.)

Data set [3] is described as follows: physchem. It counts as physicochemical. Particulars: thermodynamic from solid. The procedure:
Assay 5: Solubility Assay in Organic Excipients The purpose of this assay was to quantify the solubility of test compounds in different organic excipients such as diisopropyl adipate, medium chain triglycerides (MCT), propylene glycol, and polyethylene glycol. The assay required 80 μL of 100 mM DMSO test compound solution per desired excipient in addition to 40 μL required to make a test standard. For example, to test a compound in all five […]) of 100 mM DMSO compound stock solution was required. The standard was created by diluting 40 μL of 100 mM DMSO compound stock solution into 160 μL of methanol and was shaken for five minutes to ensure solution uniformity. […] This 20,000 μM solution was run on an Agilent 1260 LC-MS system by injecting 0.2 μL in order to obtain the peak area. For the test solutions, 80 μL of 100 mM DMSO compound stock solution, per excipient, were dried down into a powder overnight. Once in powder form, 400 μL of the desired excipient was added to the powder and allowed to shake vigorously for four hours. The maximum theoretical concentration for this sample solution was 20,000 μM. After four hours of shaking, the samples were centrifuged for 10 minutes at 3,000 RPM before injecting 0.2 μL on the same Agilent 1260 LC-MS system to obtain the peak area. […] In Table 3 below, A represents a value above 10, B represents a value between 5 and 10, C represents a value below 5.

One may read the solubility as how much of the substance goes into solution per volume.

Take `CCS(=O)(=O)N1[C@@H]2CCC[C@H]1C[C@H](N(C)c1nc(COC(C)=O)c(F)c(Nc3cc(C)[nH]n3)n1)C2` [Compound 1, (2-(((1R,3s,5S)-9-(ethylsulfonyl)-9-azabicyclo[3.3.1]nonan-3-yl)(methyl)amino)-5-fluoro-6-((5-methyl-1H-pyrazol-3-yl)amino)pyrimidin-4-yl)methyl acetate]: the solubility at 4 h was 10 to 50 µM in “physchem [1]”; less than 5000 µg/mL in “physchem [3]” (oil or lipid, Solubility in MCT); more than 10000 µg/mL in “physchem [3]” (organic solvent or mixture, Solubility in Diisopropyl adipate); 5000 to 10000 µg/mL in the data set “physchem [3]” (organic solvent or mixture, Solubility in PEG400); more than 10000 µg/mL in “physchem [3]” (organic solvent or mixture, Solubility in Propylene glycol); more than 10000 µg/mL in the data set “physchem [3]” (organic solvent or mixture, Solubility in Transcutol). Moreover, in data set [2], the IC50 is not above 10 nM.
